Results published in patent publication US8853391B2, “Tricyclic azaindoles” (Merck Patent GmbH, priority 2008, dated 2014).

Molecular target: Src (Homo sapiens, UniProt P12931)
Test: Src kinase inhibition (IC50)
Assay type: biochemical
Text: Other assays are known from the literature and could readily be performed by the person skilled in the art (see, for example, Dhanabal et al., Cancer Res. 59:189-197; Xin et al., J. Biol. Chem. 274:9116-9121; Sheu et al., Anticancer Res. 18:4435-4441; Ausprunk et al., Dev. Biol. 38:237-248; Gimbrone et al., J. Natl. Cancer Inst. 52:413-427; Nicosia et al., In Vitro 18:538-549).

Src, sequence (P12931 whole entry, species assumed): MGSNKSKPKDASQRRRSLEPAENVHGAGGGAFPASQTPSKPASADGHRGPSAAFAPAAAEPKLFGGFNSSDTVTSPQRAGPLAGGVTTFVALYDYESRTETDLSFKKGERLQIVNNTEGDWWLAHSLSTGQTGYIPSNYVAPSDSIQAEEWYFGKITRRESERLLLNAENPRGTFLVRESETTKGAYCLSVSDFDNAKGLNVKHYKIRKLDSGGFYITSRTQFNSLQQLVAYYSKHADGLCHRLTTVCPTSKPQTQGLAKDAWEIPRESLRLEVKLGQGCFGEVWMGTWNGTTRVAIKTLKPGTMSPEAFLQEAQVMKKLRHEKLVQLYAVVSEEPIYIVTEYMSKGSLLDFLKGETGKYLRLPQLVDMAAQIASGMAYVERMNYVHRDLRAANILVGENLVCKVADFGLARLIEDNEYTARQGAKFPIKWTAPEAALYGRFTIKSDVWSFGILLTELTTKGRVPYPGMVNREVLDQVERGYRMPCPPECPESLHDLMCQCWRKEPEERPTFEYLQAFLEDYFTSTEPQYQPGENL

SMILES | IC50 [nM]
O=C(C1CC1)N1CCc2[nH]c3nccc(Nc4c(Cl)ccc5c4OCO5)c3c2C1 [Example 68, [4-(5-Chloro-benzo[1,3]-dioxol-4-ylamino)-5,7,8,9-tetrahydro-dipyrido[2,3-b;3′,4′-d]pyrrol-6-yl]-cyclopropyl-methanone] | 101 to 1000
O=C(C1CCC1)N1CCc2[nH]c3nccc(Nc4c(Cl)ccc5c4OCO5)c3c2C1 [Example 69, [4-(5-Chloro-benzo[1,3]-dioxol-4-ylamino)-5,7,8,9-tetrahydro-dipyrido[2,3-b;3′,4′-d]pyrrol-6-yl]-cyclobutyl-methanone] | 101 to 1000
O=C(C1CCCC1)N1CCc2[nH]c3nccc(Nc4c(Cl)ccc5c4OCO5)c3c2C1 [Example 70, [4-(5-Chloro-benzo[1,3]-dioxol-4-ylamino)-5,7,8,9-tetrahydro-dipyrido[2,3-b;3′,4′-d]pyrrol-6-yl]-cyclopentyl-methanone] | 101 to 1000
O=C(C1CCCCC1)N1CCc2[nH]c3nccc(Nc4c(Cl)ccc5c4OCO5)c3c2C1 [Example 71, [4-(5-Chloro-benzo[1,3]-dioxol-4-ylamino)-5,7,8,9-tetrahydro-dipyrido[2,3-b;3′,4′-d]pyrrol-6-yl]-cyclohexyl-methanone] | 101 to 1000

Continued, values first:

IC50 [nM] | SMILES
11 to 100 | CC(=O)N1CCc2[nH]c3nccc(Nc4c(Cl)ccc5c4OCO5)c3c2C1 [Example 15, 1-[4-(5-Chloro-benzo[1,3]dioxol-4-ylamino)-5,7,8,9-tetrahydro-dipyrido[2,3-b;3′,4′-d]pyrrol-6-yl]-ethanone]
101 to 1000 | O=C(c1ccccc1)N1CCc2[nH]c3nccc(Nc4c(Cl)ccc5c4OCO5)c3c2C1 [Example 67, [4-(5-Chloro-benzo[1,3]-dioxol-4-ylamino)-5,7,8,9-tetrahydro-dipyrido[2,3-b;3′,4′-d]pyrrol-6-yl]-phenyl-methanone]
